{
  "source": "patent US7241738B2",
  "about": "“Peptides effective in the treatment of tumors and other conditions requiring the removal or destruction of cells” (Nymox Pharmaceutical Corporation, priority 2001, dated 2007)",
  "key": {"[1]": {"test_system": "muscle tissue, subcutaneous connective tissue, and dermis at injection sites", "experiment": "Injection into skin, subcutaneous tissue and extremity skeletal muscle of normal rats; histopathology at 24 hours", "type": "in vivo, rat", "text": "The individual foci of infiltration were excised, fixed in 10% formalin, embedded in paraffin, and stained and examined by standard histopathological methods.\nThe controls received saline alone.\nTissues were excised, fixed in 10% formalin, embedded in paraffin, and stained and examined by standard histopathological methods."}, "[2]": {"test_system": "normal rodent muscle tissue, subcutaneous connective tissue, dermis; human and non-human origin tumors", "conditions": "dermis and a variety of human and non-human origin tumors in rodent models; cited from earlier work"}, "rat prostate": {"test_system": "rat prostate", "experiment": "Intraprostatic infusion in rats; prostate volume and histology at 72 hours", "type": "in vivo, rat (Sprague-Dawley)", "conditions": "for prostate histology (H & E): intraprostatic infusion, rats sacrificed after 72 hours", "procedure": "(§1) Male Sprague-Dawley rats (300 gram weight range) were anesthetized with ether and given NTP peptide #6 by intraprostatic infusion after open surgical visualization of the prostate. The injections consisted of 300 μl of NTP peptide #6, 1 mg/mL in PBS pH 7.4. (1.0 mg/kg) (n=8), control injections of PBS alone (n=6), and controls with no injection (n=2). Rats were painlessly sacrificed after 72 hours. Prostate glands were dissected, fixed in 10% buffered formalin for 24 hours, embedded in paraffin, sectioned, and stained with H & E. For each animal the entire prostate gland was embedded and sectioned. All stained sections were examined histologically and measured. For each prostate at least 4 histological sections were examined, and for each histological section two cross-sectional diameters (D) at 90° from each other were measured (total of ≧8 measurements per prostate). The mean diameter from these measurements for each prostate was used to estimate volume according to\nas §1, with “Related Peptide #2” for “NTP peptide #6”, “Related Peptide #2,” for “NTP peptide #6,”, “>8” for “≧8”\nThe controls were the same as Example 1.\nNormal rats were injected in the prostate as in the above Examples 1 and 4 with Related Peptide #3. Rats were painlessly sacrificed after 72 hours and their prostate glands were examined as in the above Examples 1 and 4."}},
  "note": "Several values for one entry are separate records, joined by “and”; a condition that tells them apart may be missing. Equal values may be shown once. Peptide text beside a SMILES is read from it.",
  "data": [
    {"compound": "CC[C@H](C)[C@H](NC(=O)[C@H](CCC(=O)O)NC(=O)[C@H](CC(C)C)NC(=O)[C@H](CCCCN)NC(=O)[C@@H](NC(=O)[C@H](CCCNC(=N)N)NC(=O)[C@H](CO)NC(=O)[C@@H](N)CC(C)C)[C@@H](C)CC)C(=O)N[C@@H](CCCCN)C(=O)O", "note": "[NTP peptide #7, LSRIKLEIK] (H-LSRIKLEIK-OH; N-terminus and C-terminus assumed)", "values": [
      {"measurement": "spread of necrosis beyond the site of injection", "setting": "[1]", "result": "did not appear to spread far beyond the site of injection"}
    ]},
    {"compound": "AD7c-NTP: ˜41 kD neural thread protein, membrane associated phosphoprotein, SEQ ID NO. 1", "values": [
      {"measurement": "causing cell death in vivo", "setting": "[2]", "result": "effective agent for causing cell death"}
    ]},
    {"compound": "GDHGRPNLSRLKLAIKYEVKKM [Related Peptide #1]", "values": [
      {"measurement": "histopathology of tissue at injection sites", "setting": "[1]; at 0.1-1 mg/mL in saline", "result": "cell death and necrosis of tissue at the injection sites"}
    ]},
    {"compound": "GLLFPVFSVCYLIAPKSPLGL [Related Peptide #3]", "values": [
      {"measurement": "prostate histology (H & E)", "setting": "rat prostate", "result": "Significant cell loss and atrophy of prostate"}
    ]},
    {"compound": "IDQQVLSRIKLEIKRCL [NTP peptide #6]", "values": [
      {"measurement": "prostate histology (H & E)", "setting": "rat prostate", "result": "extensive loss of glandular epithelium, flattening and atrophy"},
      {"measurement": "reduction in prostate volume compared to controls", "setting": "rat prostate; intraprostatic open infusion 1.0 mg/kg (300 μl, 1 mg/mL in PBS pH 7.4), 72 hours, vs untreated or PBS treated controls, estimated from mean diameters", "result": "45% and > 40%"}
    ]},
    {"compound": "QQSIAVKFLAVFGVSI [Related Peptide #2]", "values": [
      {"measurement": "prostate histology (H & E)", "setting": "rat prostate", "result": "significant cell loss and atrophy in the prostate"}
    ]}
  ]
}
